Assay results: patent US11254690B2, “PTEFb inhibiting macrocyclic compounds” (BAYER AKTIENGESELLSCHAFT, priority 2017, dated 2022)
Read-outs that look alike come from different tables or passages of the source.

Tests used:
A2780 cells = experiment: Proliferation assay, A2780; type: cell-based, human; conditions: 72-hour exposure, Cell Titre-Glo, read-out: Inhibition of A2780 cell proliferation IC50
Protocol: Cultivated tumour cells (HeLa, human cervical tumour cells, ATCC CCL-2; NCI-H460, human non-small cell lung carcinoma cells, ATCC HTB-177; DU 145, hormone-independent human prostate carcinoma cells, ATCC HTB-81; HeLa-MaTu-ADR, multidrug-resistant human cervical carcinoma cells, EPO-GmbH Berlin; Caco-2, human colorectal carcinoma cells, ATCC HTB-37; B16F10, mouse melanoma cells, ATCC CRL-6475) were plated at a density of 5,000 cells/well (DU145, HeLa-MaTu-ADR), 3,000 cells/well (NCI-H460, HeLa), 1,500 cells/well (Caco-2), or 1,000 cells/well (B16F10) in a 96-well multititer plate in 200 μL of their respective growth medium supplemented 10% fetal calf serum. After 24 hours, the cells of one plate (zero-point plate) were stained with crystal violet (see below), while the medium of the other plates was supplemented with the test substances in various concentrations (0 μM, as well as in the range of 0.0001-10 μM; the final concentration of the solvent dimethyl sulfoxide was adjusted to 0.1%) using a Hewlett-Packard HP D300 Digital Dispenser. The cells were incubated for 4 days in the presence of test substances. Cell proliferation was determined by staining the cells with crystal violet: the cells were fixed by adding 20 μl/measuring point of an 11% glutaric aldehyde solution for 15 minutes at room temperature. After three washing cycles of the fixed cells with water, the plates were dried at room temperature. The cells were stained by adding 100 μl/measuring point of a 0.1% crystal violet solution (pH 3.0). After three washing cycles of the stained cells with water, the plates were dried at room temperature. The dye was dissolved by adding 100 μl/measuring point of a 10% acetic acid solution. The extinction was determined by photometry at a wavelength of 595 nm. The change of cell number, in percent, was calculated by normalization of the measured values to the extinction values of the zero-point plate (=0%) and the extinction of the untreated ([…]) cells (=100%). The IC50 values (inhibitory concentration at 50% of maximal effect) were determined by means of a 4 parameter fit. A2780 human ovarian carcinoma cells (ECACC #93112519) and non-adherent MOLM-13 human acute myeloid leukemia cells (DSMZ ACC 554) were seeded at a density of 3,000 cell/well (A2780) or 5,000 cells/well (MOLM-13) in a 96-well multititer plate in 150 μL of growth medium supplemented 10% fetal calf serum. After 24 hours, cell viability of one plate (zero-point plate) was determined with the Cell Titre-Glo Luminescent Cell Viability Assay (Promega), while the medium of the other plates was supplemented with the test substances in various concentrations (0 μM, as well as in the range of 0.0001-10 μM; the final concentration of the solvent dimethyl sulfoxide was adjusted to 0.1%) using a Hewlett-Packard HP D300 Digital Dispenser. Cell viability was assessed after 72-hour exposure with the Cell Titre-Glo Luminescent Cell Viability Assay (Promega). IC50 values (inhibitory concentration at 50% of maximal effect) were determined by means of a 4 parameter fit on measurement data which were normalized to vehicle (DMSO) treated cells (=100%) and measurement readings taken immediately before compound exposure (=0%).

CDK9/CycT1 = biological target: T1, CDK9/CycT1 (Homo sapiens, UniProt P50750); experiment: CDK9/CycT1 high ATP kinase assay (TR-FRET, 2 mM ATP); type: biochemical; conditions: for IC50: 2 mM ATP, Method 1b, lower limit for IC50s about 1-2 nM; for Selectivity high ATP CDK9 over high ATP CDK2: IC50 (high ATP CDK2)/IC50 (high ATP CDK9): ratio from Methods 1b and 2b, minimal values for IC50s near the assay limit
T1 construct: Recombinant full-length His-tagged human CDK9 and CycT1; His; purchased Life Technologies PV4131; host or cells: insect cells
T1 sequence (P50750 whole entry): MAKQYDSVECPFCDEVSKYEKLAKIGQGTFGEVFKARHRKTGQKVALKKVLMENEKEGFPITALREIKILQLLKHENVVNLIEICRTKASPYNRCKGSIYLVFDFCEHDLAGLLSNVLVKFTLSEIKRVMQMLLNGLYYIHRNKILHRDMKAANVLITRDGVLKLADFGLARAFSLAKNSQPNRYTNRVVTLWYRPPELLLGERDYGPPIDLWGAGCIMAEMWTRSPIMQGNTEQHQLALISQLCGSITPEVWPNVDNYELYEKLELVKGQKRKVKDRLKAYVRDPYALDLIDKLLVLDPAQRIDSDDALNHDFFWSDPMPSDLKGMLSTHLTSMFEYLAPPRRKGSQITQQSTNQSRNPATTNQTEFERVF
T1 sequence (O60563 whole entry partner): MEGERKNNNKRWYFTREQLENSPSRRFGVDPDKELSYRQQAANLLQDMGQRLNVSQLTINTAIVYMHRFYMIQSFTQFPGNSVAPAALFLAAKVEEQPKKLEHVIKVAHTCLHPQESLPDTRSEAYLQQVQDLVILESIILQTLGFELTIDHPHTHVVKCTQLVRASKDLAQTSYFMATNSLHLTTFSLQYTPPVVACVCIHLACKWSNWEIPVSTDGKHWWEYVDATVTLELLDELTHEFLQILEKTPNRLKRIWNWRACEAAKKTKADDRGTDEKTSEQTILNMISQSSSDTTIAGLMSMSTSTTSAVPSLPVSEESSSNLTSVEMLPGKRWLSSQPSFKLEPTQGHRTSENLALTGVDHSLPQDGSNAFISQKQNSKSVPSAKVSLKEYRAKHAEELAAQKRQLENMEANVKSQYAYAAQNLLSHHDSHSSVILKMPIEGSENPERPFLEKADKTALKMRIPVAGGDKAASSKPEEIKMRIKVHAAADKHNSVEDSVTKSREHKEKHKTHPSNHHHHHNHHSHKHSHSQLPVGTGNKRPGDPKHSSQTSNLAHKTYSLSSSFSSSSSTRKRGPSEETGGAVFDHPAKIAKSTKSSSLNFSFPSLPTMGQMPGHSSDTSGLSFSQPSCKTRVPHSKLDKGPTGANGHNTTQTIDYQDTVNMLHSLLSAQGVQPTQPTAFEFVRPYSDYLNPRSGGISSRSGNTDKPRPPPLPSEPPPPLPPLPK
Protocol: 1b. CDK9/CycT1 High ATP Kinase Assay
CDK9/CycT1-inhibitory activity of compounds of the present invention at a high ATP concentration after preincubation of enzyme and test compounds was quantified employing the CDK9/CycT1 TR-FRET assay as described in the following paragraphs.
Recombinant full-length His-tagged human CDK9 and CycT1, expressed in insect cells and purified by Ni-NTA affinity chromatography, were purchased from Life Technologies (Cat. No PV4131). As substrate for the kinase reaction biotinylated peptide biotin-Ttds-YISPLKSPYKISEG (C-terminus in amide form) was used which can be purchased e.g. form the company JERINI peptide technologies (Berlin, Germany).
(§1) For the assay 50 nl of a 100 fold concentrated solution of the test compound in DMSO was pipetted into either a black low volume 384 well microtiter plate or a black 1536 well microtiter plate (both Greiner Bio-One, Frickenhausen, Germany), 2 μl of a solution of CDK9/CycT1 in aqueous assay buffer [50 mM Tris/HCl pH 8.0, 10 mM MgCl2, 1.0 mM dithiothreitol, 0.1 mM sodium ortho-vanadate, 0.01% (v/v) Nonidet-P40 (Sigma)] were added and the mixture was incubated for 15 min at 22° C. to allow pre-binding of the test compounds to the enzyme before the start of the kinase reaction. […] The concentration of CDK9/CycT1 was adjusted depending of the activity of the enzyme lot and was chosen appropriate to have the assay in the linear range, typical concentrations were in the range of 0.5 μg/ml. The reaction was stopped by the addition of 3 μl of a solution of TR-FRET detection reagents (0.33 μM streptavidine-XL665 [Cisbio Bioassays, Codolet, France] and 1.67 nM anti-RB(pSer807/pSer811)-antibody from BD Pharmingen [#558389] and 2 nM LANCE EU-W1024 labeled anti-mouse IgG antibody [Perkin-Elmer, product no. AD0077]) in an aqueous EDTA-solution (167 mM EDTA, 0.2% (w/v) bovine serum albumin in 100 mM HEPES pH 7.5).
(§2) The resulting mixture was incubated 1 h at 22° C. to allow the formation of complex between the phosphorylated biotinylated peptide and the detection reagents. Subsequently the amount of phosphorylated substrate was evaluated by measurement of the resonance energy transfer from the Eu-chelate to the streptavidine-XL. Therefore, the fluorescence emissions at 620 nm and 665 nm after excitation at 350 nm was measured in a TR-FRET reader, e.g. a Pherastar (BMG Labtechnologies, Offenburg, Germany) or a Viewlux (Perkin-Elmer). The ratio of the emissions at 665 nm and at […] was taken as the measure for the amount of phosphorylated substrate. The data were normalised (enzyme reaction without inhibitor=0% inhibition, all other assay components but no enzyme=100% inhibition).

CDK2/CycE = biological target: T2, CDK2/CycE (Homo sapiens, UniProt P24941); experiment: CDK2/CycE high ATP kinase assay (TR-FRET, 2 mM ATP); type: biochemical; conditions: Method 2b
T2 construct: GST; purchased ProQinase GmbH (Freiburg, Germany); host or cells: insect cells (Sf9)
Protocol: 2b. CDK2/CycE High ATP Kinase Assay
CDK2/CycE-inhibitory activity of compounds of the present invention at 2 mM adenosine-tri-phosphate (ATP) was quantified employing the CDK2/CycE TR-FRET (TR-FRET=Time Resolved Fluorescence Energy Transfer) assay as described in the following paragraphs.
Recombinant fusion proteins of GST and human CDK2 and of GST and human CycE, expressed in insect cells (Sf9) and purified by Glutathion-Sepharose affinity chromatography, were purchase from ProQinase GmbH (Freiburg, Germany). As substrate for the kinase reaction biotinylated peptide biotin-Ttds-YISPLKSPYKISEG (C-terminus in amid form) was used which can be purchased e.g. form the company JERINI peptide technologies (Berlin, Germany).
as §1, with “CDK2/CycE” for “CDK9/CycT1”, “about 10 ng/ml.” for “in the range of 0.5 μg/ml.”, “(0.333” for “(0.33”, “AD0077, as an alternative a Terbium-cryptate-labeled anti-mouse IgG antibody from Cisbio Bioassays can be used])” for “AD0077])”
as §2

[1] = in vivo; cited from earlier work

| SMILES | IC50 (A2780 cells; Homo sapiens, A2780, 72 h) [nM] | IC50 (CDK9/CycT1) [nM] | Selectivity high ATP CDK9 over high ATP CDK2: IC50 (high ATP CDK2)/IC50 (high ATP CDK9) (CDK9/CycT1) | IC50 (CDK2/CycE) [nM] | IC50 (A2780 cells) [nM] | protection against bronchospasms [1] |
| --- | --- | --- | --- | --- | --- | --- |
| CC1CCCCCOc2cc(ccc2F)-c2cc(ncc2F)Nc2cc(CS(C)(=O)=O)cc(n2)O1 (single isomer, unassigned) [Example 31, 3,22-difluoro-14-methyl-10-[(methylsulfonyl)methyl]-13,20-dioxa-5,7,26-triazatetracyclo[19.3.1.1^2,6.1^8,12]hexacosa-1 (25),2(27),3,5,8(26),9,11,21,23-nonaene] | 121 | 16 | 1250 | > 20000 | – | – |
| CC1CCCCCOc2cc(ccc2F)-c2cc(ncc2F)Nc2cc(CS(C)(=O)=O)cc(n2)O1 (single isomer, unassigned) [Example 32, 3,22-difluoro-14-methyl-10-[(methylsulfonyl)methyl]-13,20-dioxa-5,7,26-triazatetracyclo[19.3.1.1^2,6.1^8,12]hexacosa-1 (25),2(27),3,5,8(26),9,11,21,23-nonaene] | – | 18 | 277 | 4980 | 146 | – |
| C[N+]1(C)[C@@H]2C[C@@H](OC(=O)C(O)(c3cccs3)c3cccs3)C[C@H]1[C@@H]1O[C@@H]12 [tiotropium] | – | – | – | – | – | more than 6 hours |
